Reference: patent publication US20250059175A1, “Mutant Pi3k-Alpha Inhibitors And Their Use As Pharmaceuticals” (Prelude Therapeutics Incorporated, priority 2023, published 2025)

Tested on: phosphorylation of AKT on Ser473 (PI3K pathway) in T-47D (heterozygous PIK3CA H1047R) cell line
Test: PI3K pathway activation assay (pAKT Ser473 HTRF), T-47D cells
Assay type: cell-based
Conditions: Homo sapiens, T47D, 2 h, read-out: T47D pAKT IC50
Experimental: The inhibitory activity of the compounds of the disclosure was evaluated by measuring phosphorylation of AKT on Ser473 as a readout of the PI3K pathway using HTRF (CisBio catalog number: 64AKSPE). These studies were conducted in the T-47D (heterozygous PIK3CA H1047R) and SKBR3 (PIK3CA WT) cell lines. Cells were maintained in a 37° C. incubator at 5% CO2 in the following media: T-47D: RPMI 1640, ATCC© Modification (Gibco, A10491-01) supplemented with 10% v/v FBS (Gibco, 26140-079), 1% penicillin streptomycin (Gibco, 15140-122), and 7.4 ug/mL insulin (MilliporeSigma, I9278); SKBR3: McCoy's 5a (Modified) Medium (Gibco, 16600-082) supplemented with 10% v/v FBS (Gibco, 26140-079). Cells were seeded in 384-well plates at a density of 4,000 cells/well. Compounds dissolved in DMSO were added using a digital dispense (D300E, Tecan) 10-point serial dilution. After two hours of treatment, cells were lysed for thirty minutes and then incubated with detection reagents per HTRF kit material and manufacturer's instructions. Fluorescence signal was measured with a multimode plate reader (Envision 2105, Perkin Elmer). Fluorescent signal was normalized to background and DMSO controls to obtain percent inhibition/activity for each compound.

| Structure (SMILES) | IC50 [µM] |
| --- | --- |
| Cc1cc([C@@H](C)Nc2ccc(Cl)nc2C(=O)O)nc(N2C(=O)OC[C@@H]2Cc2ccccc2Br)c1 [Example 22, 3-(((R)-1-(6-((S)-4-(2-Bromobenzyl)-2-oxooxazolidin-3-yl)-4-methylpyridin-2-yl)ethyl)amino)-6-chloropicolinic acid] | 0.1 to 1 |

Same assay, conditions: Homo sapiens, T47D, 2 h; T-47D (heterozygous PIK3CA H1047R) cells, two hours of treatment, pAKT Ser473 HTRF; read-out: T47D pAKT IC50

| IC50 [µM] | Structure (SMILES) |
| --- | --- |
| 0.1 to 1 | Cc1cc([C@@H](C)Nc2ccc(Cl)nc2C(=O)O)nc(N2C(=O)OC[C@@H]2Cc2cc(C)ncc2F)c1 [Example 30, 6-Chloro-3-(((R)-1-(6-((S)-4-((5-fluoro-2-methylpyridin-4-yl)methyl)-2-oxooxazolidin-3-yl)-4-methylpyridin-2-yl)ethyl)amino)picolinic acid] |
| 0.1 to 1 | Cc1cc([C@@H](C)Nc2ccc(Cl)nc2C(=O)O)nc(N2C(=O)OC[C@@H]2Cc2ccc(C(=O)N(C)C)cc2)c1 [Example 51, 6-Chloro-3-(((R)-1-(6-((S)-4-(4-(dimethylcarbamoyl)benzyl)-2-oxooxazolidin-3-yl)-4-methylpyridin-2-yl)ethyl)amino)picolinic acid] |
| 0.1 to 1 | Cc1cc([C@@H](C)Nc2ccc(Cl)nc2C(=O)O)nc(N2C(=O)OC[C@@H]2CCc2ccccc2)c1 [Example 53, 6-Chloro-3-(((R)-1-(4-methyl-6-((S)-2-oxo-4-phenethyloxazolidin-3-yl)pyridin-2-yl)ethyl)amino)picolinic acid] |
| < 0.1 | Cc1cc([C@@H](C)Nc2ccc(Cl)nc2C(=O)O)nc(N2C(=O)OC[C@@H]2CC2CCC2)c1 [Example 47, 6-Chloro-3-(((R)-1-(6-((S)-4-(cyclobutylmethyl)-2-oxooxazolidin-3-yl)-4-methylpyridin-2-yl)ethyl)amino)picolinic acid] |
| < 0.1 | Cc1cc([C@@H](C)Nc2ccc(Cl)nc2C(=O)O)nc(N2C(=O)OC[C@@H]2Cc2ccc3c(cnn3C)c2)c1 [Example 42, 6-Chloro-3-(((R)-1-(4-methyl-6-((S)-4-((1-methyl-1H-indazol-5-yl)methyl)-2-oxooxazolidin-3-yl)pyridin-2-yl)ethyl)amino)picolinic acid] |
| < 0.1 | Cc1cc([C@@H](C)Nc2ccc(Cl)nc2C(=O)O)nc(N2C(=O)OC[C@@H]2Cc2ccc3nn(C)cc3c2)c1 [Example 43, 6-Chloro-3-(((R)-1-(4-methyl-6-((S)-4-((2-methyl-2H-indazol-5-yl)methyl)-2-oxooxazolidin-3-yl)pyridin-2-yl)ethyl)amino)picolinic acid] |
| < 0.1 | Cc1cc([C@@H](C)Nc2ccc(Cl)nc2C(=O)O)nc(N2C(=O)OC[C@@H]2Cc2cn(C)c3ncccc23)c1 [Example 39, 6-Chloro-3-(((R)-1-(4-methyl-6-((S)-4-((1-methyl-1H-pyrrolo[2,3-b]pyridin-3-yl)methyl)-2-oxooxazolidin-3-yl)pyridin-2-yl)ethyl)amino)picolinic acid] |
| 0.1 to 1 | Cc1cc([C@@H](C)Nc2ccc(Cl)nc2C(=O)O)nc(N2C(=O)OC[C@@H]2Cc2ccnn2C)c1 [Example 34, 6-Chloro-3-(((R)-1-(4-methyl-6-((S)-4-((1-methyl-1H-pyrazol-5-yl)methyl)-2-oxooxazolidin-3-yl)pyridin-2-yl)ethyl)amino)picolinic acid] |
| 0.1 to 1 | Cc1cc([C@@H](C)Nc2ccc(Cl)nc2C(=O)O)nc(N2C(=O)OC[C@@H]2Cc2cccc3ccccc23)c1 [Example 31, 6-Chloro-3-(((R)-1-(4-methyl-6-((S)-4-(naphthalen-1-ylmethyl)-2-oxooxazolidin-3-yl)pyridin-2-yl)ethyl)amino)picolinic acid] |
| 1 to 10 | Cc1cc(C(C)Nc2ccc(C#N)nc2C(=O)O)nc(N2C(=O)OC[C@@H]2Cc2ccccc2)c1 (stereo partly drawn) [Example 19, 3-((1-(6-((S)-4-Benzyl-2-oxooxazolidin-3-yl)-4-methylpyridin-2-yl)ethyl)amino)-6-cyanopicolinic acid] |
| < 0.1 | Cc1cc([C@@H](C)Nc2ccc(Cl)nc2C(=O)O)nc(N2C(=O)OC[C@@H]2Cc2cn(C)c3ccccc23)c1 [Example 37, 6-Chloro-3-(((R)-1-(4-methyl-6-((S)-4-((1-methyl-1H-indol-3-yl)methyl)-2-oxooxazolidin-3-yl)pyridin-2-yl)ethyl)amino)picolinic acid] |

The next lines start with the compound.

| Structure (SMILES) | IC50 [µM] |
| --- | --- |
| CC(Nc1ccc(F)nc1C(=O)O)c1cc(N2C(=O)OC[C@@H]2Cc2ccccc2)cc(C(F)(F)F)c1 (stereo partly drawn) [Example 8, 3-((1-(3-((S)-4-Benzyl-2-oxooxazolidin-3-yl)-5-(trifluoromethyl)phenyl)ethyl)amino)-6-fluoropicolinic acid] | 1 to 10 |
| Cc1cc(C(C)Nc2ccc(C)nc2C(=O)O)nc(N2C(=O)OC[C@@H]2Cc2ccccc2)c1 (single isomer, unassigned) [Example 14] | 0.1 to 1 |
| Cc1cc([C@@H](C)Nc2ccc(Cl)nc2C(=O)O)nc(N2C(=O)OC[C@@H]2Cc2ccc(C(=O)OC(C)(C)C)cc2)c1 [Example 25, 3-(((R)-1-(6-((S)-4-(4-(tert-Butoxycarbonyl)benzyl)-2-oxooxazolidin-3-yl)-4-methylpyridin-2-yl)ethyl)amino)-6-chloropicolinic acid] | 0.1 to 1 |
| Cc1cc(C(C)Nc2ccc(F)nc2C(=O)O)cc(N2C(=O)OC[C@@H]2Cc2ccccc2)c1 (stereo partly drawn) [Example 3, 3-((1-(3-((S)-4-Benzyl-2-oxooxazolidin-3-yl)-5-methylphenyl)ethyl)amino)-6-fluoropicolinic acid] | 0.1 to 1 |
| Cc1cc(C(C)Nc2ccc(Cl)nc2C(=O)O)cc(N2C(=O)OC[C@@H]2Cc2ccccc2)c1 (single isomer, unassigned) [Example 2] | 0.1 to 1 |
| Cc1cc(C(C)Nc2ccc(Cl)nc2C(=O)O)cc(N2C(=O)OC[C@@H]2Cc2ccccc2)c1 (stereo partly drawn) [Example 1, 3-((1-(3-((S)-4-Benzyl-2-oxooxazolidin-3-yl)-5-methylphenyl)ethyl)amino)-6-chloropicolinic acid] | 0.1 to 1 |
| COc1ccc(NC(C)c2cc(C)cc(N3C(=O)OC[C@@H]3Cc3ccccc3)n2)c(C(=O)O)n1 (single isomer, unassigned) [Example 16] | 0.1 to 1 |
| CC(Nc1ccc(Cl)nc1C(=O)O)c1cc(Cl)cc(N2C(=O)OC[C@@H]2Cc2ccccc2)c1 (stereo partly drawn) [Example 6, 3-((1-(3-((S)-4-Benzyl-2-oxooxazolidin-3-yl)-5-chlorophenyl)ethyl)amino)-6-chloropicolinic acid] | 0.1 to 1 |
| Cc1cc(C(C)Nc2cccnc2C(=O)O)nc(N2C(=O)OC[C@@H]2Cc2ccccc2)c1 (single isomer, unassigned) [Example 13] | 0.1 to 1 |

Same assay, conditions: T-47D (heterozygous PIK3CA H1047R) cells, two hours of treatment, pAKT Ser473 HTRF; read-out: T47D pAKT IC50

| IC50 [µM] | Structure (SMILES) |
| --- | --- |
| < 0.1 | Cc1cc([C@@H](C)Nc2ccc(Cl)nc2C(=O)O)nc(N2C(=O)OC[C@@H]2Cc2cccn3nccc23)c1 [Example 45, 6-Chloro-3-(((R)-1-(4-methyl-6-((S)-2-oxo-4-(pyrazolo[1,5-α]pyridin-4-ylmethyl)oxazolidin-3-yl)pyridin-2-yl)ethyl)amino)picolinic acid] |
| 0.1 to 1 | Cc1cc([C@@H](C)Nc2ccc(Cl)nc2C(=O)O)nc(N2C(=O)OC[C@@H]2Cc2ccc3cncn3c2)c1 [Example 41, 6-Chloro-3-(((R)-1-(6-((S)-4-(imidazo[1,5-α]pyridin-6-ylmethyl)-2-oxooxazolidin-3-yl)-4-methylpyridin-2-yl)ethyl)amino)picolinic acid] |
| < 0.1 | Cc1cc([C@@H](C)Nc2ccc(Cl)nc2C(=O)O)nc(N2C(=O)OC[C@@H]2Cc2ccn3nccc3c2)c1 [Example 40, 6-Chloro-3-(((R)-1-(4-methyl-6-((S)-2-oxo-4-(pyrazolo[1,5-α]pyridin-5-ylmethyl)oxazolidin-3-yl)pyridin-2-yl)ethyl)amino)picolinic acid] |
